The test system of assay [1] is Lactuca sativa. In words: Bleaching activity against Lactuca sativa cv. Sacramento (lettuce) seedlings assessed as bleaching ratings at 10 ppm incubated for 4 days at 25 degC under 12 hr photoperiod. It counts as functional.
The test system of assay [2] is Lactuca sativa. Kind of assay: Bleaching activity against Lactuca sativa cv. Sacramento (lettuce) seedlings assessed as bleaching ratings at 25 ppm incubated for 4 days at 25 degC under 12 hr photoperiod. It counts as functional.
In assay [3] the test system is Lactuca sativa. In words: Bleaching activity against Lactuca sativa cv. Sacramento (lettuce) seedlings assessed as bleaching ratings at 50 ppm incubated for 4 days at 25 degC under 12 hr photoperiod. It counts as functional.
Assay [4] has as its system Lactuca sativa. In words: Bleaching activity against Lactuca sativa cv. Sacramento (lettuce) seedlings assessed as bleaching ratings at 1 ppm incubated for 4 days at 25 degC under 12 hr photoperiod. Type of assay: functional.
Assay [5] deals with Lactuca sativa. In words: Bleaching activity against Lactuca sativa cv. Sacramento (lettuce) seedlings assessed as bleaching ratings at 3 ppm incubated for 4 days at 25 degC under 12 hr photoperiod. It counts as functional.
Assay [6] deals with Lactuca sativa. Kind of assay: Bleaching activity against Lactuca sativa cv. Sacramento (lettuce) seedlings assessed as bleaching ratings at 5 ppm incubated for 4 days at 25 degC under 12 hr photoperiod. It counts as functional.
For assay [7], the system named is Radish. In words: Induction of phytoene accumulation in Raphanus sativus cv. Osaka (radish) seedlings at 10 to 100 uM incubated for 4 days at 25 degC under dark conditions. It counts as functional, organism-based.
The test system of assay [8] is Radish. Kind of assay: Reduction in beta-carotene content in Raphanus sativus cv. Osaka (radish) seedlings at 10 to 100 uM incubated for 4 days at 25 degC under dark conditions. Type of assay: functional, organism-based.
Assay [9] relates to Radish. In words: Reduction in chlorophyll content in Raphanus sativus cv. Osaka (radish) seedlings at 10 uM incubated for 4 days at 25 degC under dark conditions. It counts as functional, organism-based.
The subject of assay [10] is Radish. Kind of assay: Reduction in carotenoid content in Raphanus sativus cv. Osaka (radish) seedlings at 10 uM incubated for 4 days at 25 degC under dark conditions. It counts as functional, organism-based.
Assay [11] concerns Radish. Kind of assay: Reduction in chlorophyll content in Raphanus sativus cv. Osaka (radish) seedlings at 10 uM incubated for 4 days at 25 degC under 12 hr photoperiod by spectrophotometry. It counts as functional. Set-up: scale not given: the % may be the effect or the level left.
Assay [12] has as its system Radish. Kind of assay: Reduction in carotenoid content in Raphanus sativus cv. Osaka (radish) seedlings at 10 uM incubated for 4 days at 25 degC under 12 hr photoperiod. Type of assay: functional. Set-up: scale not given: the % may be the effect or the level left.
For assay [13], the system named is Radish. In words: Reduction in chlorophyll content in Raphanus sativus cv. Osaka (radish) seedlings at 10 to 100 uM incubated for 4 days at 25 degC under 12 hr photoperiod by spectrophotometry. Type of assay: functional, organism-based.
Assay [14] relates to Radish. In words: Reduction in carotenoid content in Raphanus sativus cv. Osaka (radish) seedlings at 10 to 100 uM incubated for 4 days at 25 degC under 12 hr photoperiod. It counts as functional, organism-based.
The subject of assay [15] is Radish. Kind of assay: Reduction in phytoene accumulation in Raphanus sativus cv. Osaka (radish) seedlings at 100 uM incubated for 4 days at 25 degC under dark conditions relative to untreated control. Type of assay: functional, organism-based.
The test system of assay [16] is Radish. In words: Induction of phytoene accumulation in Raphanus sativus cv. Osaka (radish) seedlings at 50 uM incubated for 4 days at 25 degC under dark conditions relative to untreated control. Type of assay: functional.
The test system of assay [17] is Radish. Kind of assay: Reduction in chlorophyll content in Raphanus sativus cv. Osaka (radish) seedlings at 100 uM incubated for 4 days at 25 degC under 12 hr photoperiod by spectrophotometry. It counts as functional, organism-based.
Assay [18] has as its system Radish. In words: Reduction in carotenoid content in Raphanus sativus cv. Osaka (radish) seedlings at 100 uM incubated for 4 days at 25 degC under 12 hr photoperiod. Type of assay: functional, organism-based.

The structures appear in SMILES notation. Calls of active or inactive are those of the source. No cut-off for these calls is given here.

Take `CCCSc1nncn1-c1ccccc1`: the Activity in the assay on Lactuca sativa [1] turned out to be 1; in the assay on Lactuca sativa [2], 2; in the assay with Lactuca sativa [3] it was 4.

In the case of `C#CCSc1nncn1-c1cccc(Cl)c1`, the Activity is reported as 0 in the assay on Lactuca sativa [4]; 2 in the assay with Lactuca sativa [5]; 3 with Lactuca sativa [6]; 60% in the assay on Radish [11]; 60% in the assay with Radish [12]; 3 with Lactuca sativa [1]. Also, in the assay on Lactuca sativa [2], the Activity is 4. The result in the assay on Radish [7], in the assay on Radish [8], with Radish [9], in the assay with Radish [10], in the assay on Radish [13] and in the assay with Radish [14] was Active.

As for `CCSc1nncn1-c1ccccc1`, the Activity with Lactuca sativa [1] is 1; with Lactuca sativa [2], 2; with Lactuca sativa [3], 3.

Turning to `c1ccc(CSc2nncn2-c2ccccc2)cc1`, the Activity in the assay on Lactuca sativa [1] is recorded as 1; in the assay on Lactuca sativa [2], 1; with Lactuca sativa [3], 2.

As to `C#CCSc1nncn1-c1ccc(Cl)cc1`, the Activity stood at 0 with Lactuca sativa [4]; 1 in the assay with Lactuca sativa [5]; 2 in the assay with Lactuca sativa [6]; 60% in the assay with Radish [11]; 60% in the assay on Radish [12]; 3 in the assay on Lactuca sativa [1]. In addition, in the assay with Lactuca sativa [2], the Activity is listed as 4. The result in the assay on Radish [15], in the assay on Radish [7], in the assay with Radish [8], in the assay with Radish [9], in the assay on Radish [10] and with Radish [13] was Active. Besides, the result in the assay with Radish [14] was Active. Also, in the assay on Radish [16], the “fold change (FC)” value amounted to 150.

For `C#CCSc1nncn1-c1ccccc1Cl`, the Activity with Lactuca sativa [4], in the assay with Lactuca sativa [5], with Lactuca sativa [6], with Lactuca sativa [1] and with Lactuca sativa [2] was 0 each time. The result in the assay on Radish [17] and in the assay with Radish [18] was inactive.

As for `C#CCSc1nncn1-c1ccc(C)cc1`, the Activity in the assay with Lactuca sativa [4] came out at 0; with Lactuca sativa [5], 1; with Lactuca sativa [6], 3; with Lactuca sativa [1], 3; in the assay on Lactuca sativa [2] it was 3.

In the case of `C#CCSc1nncn1-c1ccc(C(F)(F)F)cc1`, the Activity in the assay with Lactuca sativa [4] turned out to be 0; in the assay with Lactuca sativa [5], 1; with Lactuca sativa [6], 2; in the assay with Lactuca sativa [1] it was 3; in the assay with Lactuca sativa [2], 3.

As to `C#CCSc1nncn1-c1cccc(C(F)(F)F)c1`, the Activity with Lactuca sativa [4] is 0; in the assay with Lactuca sativa [5] it was 1; in the assay with Lactuca sativa [6], 2; with Lactuca sativa [1], 3; in the assay with Lactuca sativa [2], 3.

`C#CCSc1nncn1-c1ccc(OCC)cc1`: the Activity in the assay with Lactuca sativa [4] turned out to be 0; in the assay with Lactuca sativa [5], 1; in the assay with Lactuca sativa [6], 2; in the assay on Lactuca sativa [1], 3; in the assay on Lactuca sativa [2], 3.

In the case of `CCCS(=O)(=O)c1nncn1-c1ccccc1`, the Activity with Lactuca sativa [1], with Lactuca sativa [2] and with Lactuca sativa [3] was 0 in each case.

For the compound `CSc1nncn1-c1ccccc1`, the Activity with Lactuca sativa [1], in the assay on Lactuca sativa [2] and in the assay with Lactuca sativa [3] was 0 each time.

`COCSc1nncn1-c1ccccc1`: the Activity with Lactuca sativa [1], in the assay with Lactuca sativa [2] and in the assay with Lactuca sativa [3] was 0 each time.

For `CCCCSc1nncn1-c1ccccc1`, the Activity in the assay with Lactuca sativa [1] was determined as 0; with Lactuca sativa [2], 1; in the assay on Lactuca sativa [3] it was 2.

For `Sc1nncn1-c1ccccc1`, the Activity in the assay with Lactuca sativa [1], in the assay with Lactuca sativa [2] and in the assay with Lactuca sativa [3] was 0 in each case.

`C#CCSc1nncn1-c1ccccc1`: the Activity came to 0 in the assay with Lactuca sativa [4]; 0 with Lactuca sativa [5]; 0 with Lactuca sativa [6]; 1 in the assay on Lactuca sativa [1]; 3 in the assay on Lactuca sativa [2]; 4 with Lactuca sativa [3].

As for `C#CCSc1nncn1-c1ccc(Cl)c(Cl)c1`, the Activity is reported as 0 in the assay with Lactuca sativa [4]; 2 in the assay with Lactuca sativa [5]; 3 with Lactuca sativa [6]; 4 with Lactuca sativa [1]; 4 in the assay on Lactuca sativa [2].

Turning to `C=CCSc1nncn1-c1ccccc1`, the Activity with Lactuca sativa [1], in the assay on Lactuca sativa [2] and in the assay with Lactuca sativa [3] was 0 each time.

The values above are taken from ChEMBL document CHEMBL3045588, “Synthesis and Bleaching Activity of 3-Propargylthio-4-(substituted phenyl)-4H-1, 2, 4-triazoles” (1995).
